Reference: PMC3433420 (PLoS ONE, 2012)
Residues, ends and D or L forms follow the SMILES beside them.

Experiments:
Details in all cases: high-confidence ErbB interactions
[1] = target: T1, RASA1-NC tandem SH2 domains (Homo sapiens, UniProt P20936); assay: FP saturation binding assay
T1 construct: the tandem protein was included in our analysis with all internal amino acids linking the domains; 6X His; thioredoxin; made in house; host or cells: E. coli BL21(DE3)pLysS
T1 sequence (P20936 181-441 limits assumed): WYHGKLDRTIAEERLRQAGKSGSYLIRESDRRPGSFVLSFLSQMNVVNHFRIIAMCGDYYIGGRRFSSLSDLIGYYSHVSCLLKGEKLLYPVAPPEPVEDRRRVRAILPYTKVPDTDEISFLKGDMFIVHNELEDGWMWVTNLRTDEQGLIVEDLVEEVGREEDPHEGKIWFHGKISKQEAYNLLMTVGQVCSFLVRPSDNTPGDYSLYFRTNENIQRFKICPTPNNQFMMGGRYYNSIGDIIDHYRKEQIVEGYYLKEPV
How it was run: (§1)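 Rhodamine-labeled peptides (10 nM final) were titrated with 12 SH2 domain concentrations (0.002–10 µM) in 20 mM HEPES, 100 mM KCl, 0.1% Tween-20, 5 mM DTT, pH 7.8. After 20 min at room temperature in the dark, FP (ex 530/em 555 nm) was read. KDs came from nonlinear least-squares fits.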

[2] = target: T2, PIK3R3-N SH2 domain (Homo sapiens, UniProt Q92569); assay: FP saturation binding assay
T2 construct: 6X His; thioredoxin; made in house; host or cells: E. coli BL21(DE3)pLysS
How it was run: as §1

[3] = target: T3, PIK3R1-N SH2 domain (Homo sapiens, UniProt P27986); assay: biochemical; format: binding
T3 construct: thioredoxin; made in house; host or cells: E. coli BL21(DE3)pLysS
T3 sequence (P27986 333-428 limits assumed): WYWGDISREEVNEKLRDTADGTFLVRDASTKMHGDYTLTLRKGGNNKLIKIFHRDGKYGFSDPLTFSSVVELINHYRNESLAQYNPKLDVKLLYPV

[4] = target: T4, YES1 SH2 domain (Homo sapiens, UniProt P07947); assay: FP saturation binding assay
T4 construct: 6X His; thioredoxin; made in house; host or cells: BL21(DE3)pLysS E. coli
T4 sequence (P07947 158-255 limits assumed): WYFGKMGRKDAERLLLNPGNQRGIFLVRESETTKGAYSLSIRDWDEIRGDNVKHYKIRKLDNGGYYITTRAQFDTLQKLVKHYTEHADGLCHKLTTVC
How it was run: as §1

[5] = target: T5, LCK SH2 domain (Homo sapiens, UniProt P06239); assay: FP saturation binding assay
T5 construct: 93 SH2 and 2 PTB domain-containing constructs; 6X His; thioredoxin; made in house; host or cells: E. coli BL21(DE3)pLysS
T5 sequence (P06239 127-224 limits assumed): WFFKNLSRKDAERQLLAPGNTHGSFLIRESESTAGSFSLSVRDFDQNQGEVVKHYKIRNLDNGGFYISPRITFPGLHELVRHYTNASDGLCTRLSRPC
How it was run: as §1

[6] = Protein PIK3R3-N, FP saturation binding, mean over replicate hits
[7] = Protein PIK3R1-N, FP saturation binding, mean over replicate hits
[8] = Protein YES1, FP saturation binding, mean over replicate hits
[9] = protein YES1, FP, mean of replicate hits
[10] = protein LCK, FP, mean of replicate hits

**Q.** How did the Kd ([1]; Protein RASA1-NC, FP saturation binding, mean over replicate hits) turn out when `CC(C)C[C@H](NC(=O)[C@H](Cc1ccc(OP(=O)(O)O)cc1)NC(=O)[C@H](CCC(=O)O)NC(=O)[C@H](CCC(=O)O)NC(=O)[C@H](C)NC(=O)[C@@H](N)CC(=O)O)C(=O)N[C@H](C(=O)N1CCC[C@H]1C(=O)N[C@@H](CCC(N)=O)C(=O)N[C@@H](CCC(N)=O)C(=O)NCC(=O)N[C@@H](Cc1ccccc1)C(=O)N[C@@H](CC(=O)O)C(=O)O)C(C)C` [ErbB2 1023 13-mer] (HELM PEPTIDE1{D.A.E.E.[O=C([C@H](Cc1ccc(OP(=O)(O)O)cc1)N[*:1])[*:2]].L.V.P.Q.Q.G.F.D}$$$$V2.0) was run?
**A.** 6.65 µM

**Q.** What about the Kd [2, 6] of the same molecule?
**A.** 5.27 µM

**Q.** And the Kd [3, 7]?
**A.** 15.8 µM

**Q.** What does the source list for `CC(C)[C@H](NC(=O)[C@H](CC(=O)O)NC(=O)[C@@H]1CCCN1C(=O)[C@H](CCC(N)=O)NC(=O)[C@H](CC(N)=O)NC(=O)[C@@H](NC(=O)[C@H](Cc1ccc(OP(=O)(O)O)cc1)NC(=O)[C@H](CCC(=O)O)NC(=O)[C@@H]1CCCN1C(=O)[C@H](CCC(N)=O)NC(=O)[C@@H]1CCCN1)C(C)C)C(=O)N[C@@H](CCCNC(=N)N)C(=O)N[C@@H](CC(=O)O)C(=O)O` [ErbB2 1139 13-mer] (HELM PEPTIDE1{P.Q.P.E.[O=C([C@H](Cc1ccc(OP(=O)(O)O)cc1)N[*:1])[*:2]].V.N.Q.P.D.V.R.D}$$$$V2.0)?
**A.** Kd [4, 8]: 13.4 µM; Kd [2, 6]: 9.05 µM

**Q.** `CC(C)C[C@H](NC(=O)[C@H](CC(N)=O)NC(=O)[C@@H](N)CC(=O)O)C(=O)N[C@@H](Cc1ccc(O)cc1)C(=O)N[C@@H](Cc1ccc(OP(=O)(O)O)cc1)C(=O)N[C@@H](Cc1c[nH]c2ccccc12)C(=O)N[C@@H](CC(=O)O)C(=O)N[C@@H](CCC(N)=O)C(=O)N[C@@H](CC(=O)O)C(=O)N1CCC[C@H]1C(=O)N1CCC[C@H]1C(=O)N[C@@H](CCC(=O)O)C(=O)N[C@@H](CC(=O)O)C(=O)O` [ErbB2 1222 13-mer] (HELM PEPTIDE1{D.N.L.Y.[O=C([C@H](Cc1ccc(OP(=O)(O)O)cc1)N[*:1])[*:2]].W.D.Q.D.P.P.E.D}$$$$V2.0) was tested. Which Kd [4, 8] did it give?
**A.** 1.52 µM

**Q.** And the Kd ([5]; Protein LCK, FP saturation binding, mean over replicate hits)?
**A.** 7.7 µM

**Q.** What about the Kd [2, 6] of the same molecule?
**A.** 9.63 µM

**Q.** What about the Kd [3, 7] of the same molecule?
**A.** 10.7 µM

**Q.** Which Kd [4, 9] does the source give for `CSCC[C@H](NC(=O)[C@H](Cc1ccc(OP(=O)(O)O)cc1)NC(=O)[C@H](CCC(=O)O)NC(=O)[C@H](Cc1ccc(O)cc1)NC(=O)CNC(=O)[C@@H](N)CC(C)C)C(=O)N[C@@H](CC(=O)O)C(=O)N[C@H](C(=O)NCC(=O)N[C@@H](CO)C(=O)N[C@@H](CC(=O)O)C(=O)N[C@@H](CC(C)C)C(=O)N[C@@H](CC(=O)O)C(=O)O)C(C)C` [ErbB3 1224 13-mer] (HELM PEPTIDE1{L.G.Y.E.[O=C([C@H](Cc1ccc(OP(=O)(O)O)cc1)N[*:1])[*:2]].M.D.V.G.S.D.L.D}$$$$V2.0) here?
**A.** 2.52 µM

**Q.** And the Kd [5, 10]?
**A.** 3.02 µM

**Q.** How did the Kd [4, 9] turn out when `CSCC[C@H](NC(=O)[C@H](CCC(=O)O)NC(=O)[C@H](CCC(=O)O)NC(=O)[C@H](Cc1ccc(OP(=O)(O)O)cc1)NC(=O)CNC(=O)[C@H](CCC(N)=O)NC(=O)[C@H](CCC(=O)O)NC(=O)[C@@H](N)CO)C(=O)N[C@@H](CCCNC(=N)N)C(=O)N[C@@H](C)C(=O)N[C@@H](Cc1ccccc1)C(=O)N[C@@H](CCC(N)=O)C(=O)N[C@@H](CC(=O)O)C(=O)O` [ErbB3 1289 13-mer] (HELM PEPTIDE1{S.E.Q.G.[O=C([C@H](Cc1ccc(OP(=O)(O)O)cc1)N[*:1])[*:2]].E.E.M.R.A.F.Q.D}$$$$V2.0) was run?
**A.** 5.91 µM

**Q.** What about the Kd [5, 10] of the same molecule?
**A.** 2.23 µM

**Q.** And the Kd ([2]; protein PIK3R3-N, FP, mean of replicate hits)?
**A.** 0.3 µM

**Q.** And the Kd ([3]; protein PIK3R1-N, FP, mean of replicate hits)?
**A.** 0.25 µM

**Q.** With `CSCC[C@H](NC(=O)[C@H](Cc1ccc(OP(=O)(O)O)cc1)NC(=O)CNC(=O)[C@H](CCC(=O)O)NC(=O)[C@H](CCC(=O)O)NC(=O)[C@H](CC(=O)O)NC(=O)[C@H](CC(C)C)NC(=O)[C@H](CCC(=O)O)NC(=O)CNC(=O)[C@H](CCCNC(=N)N)NC(=O)[C@@H]1CCCN1)C(=O)N[C@H](C(=O)N1CCC[C@H]1C(=O)N[C@@H](CCSC)C(=O)N[C@@H](CCCNC(=N)N)C(=O)N[C@@H](CC(=O)O)C(=O)N[C@@H](CCCCN)C(=O)N[C@@H](CC(=O)O)C(=O)O)[C@@H](C)O` [ErbB4 1150 18-mer] (HELM PEPTIDE1{P.R.G.E.L.D.E.E.G.[O=C([C@H](Cc1ccc(OP(=O)(O)O)cc1)N[*:1])[*:2]].M.T.P.M.R.D.K.D}$$$$V2.0) as the molecule, how does the Kd ([1]; protein RASA1-NC, FP, mean of replicate hits) read?
**A.** 0.41 µM

**Q.** `CC(C)C[C@H](NC(=O)[C@H](Cc1ccc(OP(=O)(O)O)cc1)NC(=O)[C@H](CC(C)C)NC(=O)[C@@H]1CCCN1C(=O)[C@H](CCC(=O)O)NC(=O)[C@H](CC(N)=O)NC(=O)[C@@H](NC(=O)[C@H](Cc1ccc(O)cc1)NC(=O)[C@H](CCC(=O)O)NC(=O)[C@H](CC(=O)O)NC(=O)[C@@H](N)CCC(=O)O)C(C)C)C(=O)N[C@@H](CC(N)=O)C(=O)N[C@H](C(=O)N[C@@H](Cc1ccccc1)C(=O)N[C@@H](C)C(=O)N[C@@H](CC(N)=O)C(=O)N[C@H](C(=O)N[C@@H](CC(=O)O)C(=O)O)[C@@H](C)O)[C@@H](C)O` [ErbB4 1208 18-mer] (HELM PEPTIDE1{E.D.E.Y.V.N.E.P.L.[O=C([C@H](Cc1ccc(OP(=O)(O)O)cc1)N[*:1])[*:2]].L.N.T.F.A.N.T.D}$$$$V2.0) was tested. Which Kd ([1]; protein RASA1-NC, mean of replicate hits) did it give?
**A.** 6.39 µM
